For 21 molecules, Ki results are on record in US20090326001A1, “THIENOPYRIDINE DERIVATIVES AS MODULATORS OF METABOTROPIC GLUTAMATE RECEPTORS” (priority 2005, published 2009).

One test addresses T1, mGluR5 (UniProt P31424).
T1 construct: Rat cerebro-cortical membrane preparation
Nature of the test: mGluR5 receptor binding test ([3H]-M-MPEP displacement). Conditions: radioligand [3H]-M-MPEP 2 nM; table does not say rat cerebro-cortical membrane or human mGluR5a A18 cells; read-out: mGlu5 Ki. As to the method:
Rat cerebro-cortical membrane preparation was used to determine the binding characteristics of reference compounds and novel compounds to the rat mGluR5. The A18 cell line expressing hmGluR5a (purchased from Euroscreen) was used to determine binding characteristics of the chemical compounds to the human mGluR5a receptor. As radioligand [3H]-M-MPEP (2 nM) was used. The nonspecific binding was determined in the presence of 10 μM M-MPEP.

A further test deals with T2, rat mGluR1 (Rattus norvegicus, UniProt P23385).
T2 construct: rat cerebellar membrane preparation was used; from tissue; host or cells: rat cerebellum (membrane preparation)
Nature of the test: mGluR1 receptor binding test ([3H]R214127 displacement, rat cerebellar membrane). The settings on record: radioligand [3H]R214127 3 nM, read-out: mGlu1 Ki. As to the method: MGluR1 receptor binding testes were performed according to modified method of Lavreysen et al. (Mol. Pharm., 2003, 63, 1082). Based on the high homology between the human and rat mGluR1 receptors, rat cerebellar membrane preparation was used to determine the binding characteristics of reference compounds and novel compounds to the rat mGluR1. As radioligand [3H]R214127 (3 nM) was used and the nonspecific binding was determined in the presence of 1 μM of R214127.
IC-50 values were determined from displacement curves by nonlinear regression analysis and were converted by equation method of Cheng and Prusoff (Biochem. Pharmacol., 1973, 22, 3099) to Ki values.

T2 sequence (P23385 19-1199): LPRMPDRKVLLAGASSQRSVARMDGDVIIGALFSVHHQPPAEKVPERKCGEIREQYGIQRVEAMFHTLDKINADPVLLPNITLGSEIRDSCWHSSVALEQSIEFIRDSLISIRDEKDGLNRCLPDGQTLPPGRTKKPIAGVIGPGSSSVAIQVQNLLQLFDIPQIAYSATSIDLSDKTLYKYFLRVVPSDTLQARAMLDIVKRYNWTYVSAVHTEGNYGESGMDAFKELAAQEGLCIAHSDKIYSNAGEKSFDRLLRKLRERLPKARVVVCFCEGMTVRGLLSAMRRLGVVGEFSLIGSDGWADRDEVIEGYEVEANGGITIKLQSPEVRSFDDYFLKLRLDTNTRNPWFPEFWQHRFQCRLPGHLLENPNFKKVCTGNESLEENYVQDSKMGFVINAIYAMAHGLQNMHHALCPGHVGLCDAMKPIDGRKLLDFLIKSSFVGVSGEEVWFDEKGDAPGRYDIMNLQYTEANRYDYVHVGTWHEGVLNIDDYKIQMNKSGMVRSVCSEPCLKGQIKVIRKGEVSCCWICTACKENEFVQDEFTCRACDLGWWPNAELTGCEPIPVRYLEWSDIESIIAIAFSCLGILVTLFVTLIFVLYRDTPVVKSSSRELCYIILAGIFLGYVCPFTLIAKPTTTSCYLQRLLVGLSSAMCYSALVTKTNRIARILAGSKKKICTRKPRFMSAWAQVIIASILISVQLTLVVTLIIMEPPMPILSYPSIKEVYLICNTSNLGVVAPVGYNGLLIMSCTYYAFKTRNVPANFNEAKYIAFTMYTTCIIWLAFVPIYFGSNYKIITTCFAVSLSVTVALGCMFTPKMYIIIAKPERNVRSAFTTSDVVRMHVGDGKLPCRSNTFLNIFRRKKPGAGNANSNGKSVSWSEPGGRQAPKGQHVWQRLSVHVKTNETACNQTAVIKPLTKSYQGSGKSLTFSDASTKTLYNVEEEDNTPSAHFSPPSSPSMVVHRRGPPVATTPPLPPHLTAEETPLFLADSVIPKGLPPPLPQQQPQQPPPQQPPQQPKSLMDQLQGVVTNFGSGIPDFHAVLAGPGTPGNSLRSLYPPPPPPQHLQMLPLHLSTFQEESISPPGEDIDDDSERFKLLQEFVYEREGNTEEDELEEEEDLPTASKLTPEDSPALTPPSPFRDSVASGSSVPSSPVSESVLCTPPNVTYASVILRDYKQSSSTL

Turning to “3-(4-Fluoro-phenyl)-1-[3-(4-fluoro-phenyl)-thieno[2,3-b]pyridin-2-yl]-propenone [Compound 10]”, the inhibition constant (Ki) at mGluR5 was > 1500 nM; on rat mGluR1, < 500 nM.

On to `O=C(Cc1ccc(F)cc1)c1sc2ncccc2c1-c1ccc(Cl)cc1` [Compound 1, 1-[3-(4-chloro-phenyl)-thieno[2,3-b]pyridin-2-yl]-2-(4-fluoro-phenyl)-ethanone], for which the Ki on mGluR5 and on rat mGluR1 was < 500 nM each time.

For the molecule `O=C(Cc1ccc(F)c(F)c1)c1sc2ncccc2c1-c1ccc(Cl)cc1` [Compound 2, 1-[3-(4-chloro-phenyl)-thieno[2,3-b]pyridin-2-yl]-2-(3,4-difluoro-phenyl)-ethanone], the inhibition constant Ki at mGluR5 and on rat mGluR1 was < 500 nM throughout.

Turning to `O=C(Cc1ccc(F)cc1)c1sc2ncccc2c1-c1ccc(F)cc1` [Compound 3, 2-(4-fluoro-phenyl)-1-[3-(4-fluoro-phenyl)-thieno[2,3-b]pyridin-2-yl]-ethanone], the Ki on mGluR5 and on rat mGluR1 was < 500 nM each time.

For `O=C(CCc1cccc(F)c1)c1sc2ncccc2c1-c1ccc(F)cc1` [Compound 4, 3-(3-fluoro-phenyl)-1-[3-(4-fluoro-phenyl)-thieno[2,3-b]pyridin-2-yl]-propan-1-one], the inhibitory constant (Ki) on mGluR5 and at rat mGluR1 was < 500 nM throughout.

For the molecule `O=C(CCc1ccc(F)cc1)c1sc2ncccc2c1-c1ccc(F)cc1` [Compound 5, 3-(4-Fluoro-phenyl)-1-[3-(4-fluoro-phenyl)-thieno[2,3-b]pyridin-2-yl]-propan-1-one], the Ki at mGluR5 and on rat mGluR1 was < 500 nM throughout.

For `O=C(CCc1ccoc1)c1sc2ncccc2c1-c1ccc(F)cc1` [Compound 16], the Ki on mGluR5 and on rat mGluR1 was 500 to 1500 nM each time.

For the molecule `O=C(CCc1ccccn1)c1sc2ncccc2c1-c1ccc(F)cc1` [Compound 17], the values for the Ki on mGluR5 and on rat mGluR1 were 500 to 1500 nM and < 500 nM, respectively.

Take `O=C(CCc1cccs1)c1sc2ncccc2c1-c1ccc(F)cc1` [Compound 18]: the inhibition constant Ki on mGluR5 is 500 to 1500 nM; on rat mGluR1 it was < 500 nM.

Consider `O=C(CCc1ccsc1)c1sc2ncccc2c1-c1ccc(F)cc1` [Compound 19, 1-[3-(4-fluoro-phenyl)-thieno[2,3-b]pyridin-2-yl]-3-thiophen-3-yl-propan-1-one], for which the Ki on mGluR5 and on rat mGluR1 was < 500 nM throughout.

`O=C(OCc1ccc(F)cc1)c1sc2ncccc2c1-c1ccc(Cl)cc1` [Compound 20, 3-(4-chloro-phenyl)-thieno[2,3-b]pyridine-2-carboxylic acid 4-fluoro-benzyl ester]: the Ki on mGluR5 and on rat mGluR1 was < 500 nM throughout.

With `CCOC(=O)CC(=O)c1sc2ncccc2c1-c1ccc(C)cc1` [Compound 22, 3-oxo-3-(3-p-tolyl-thieno[2,3-b]pyridin-2-yl)-propionic acid ethyl ester], the Ki at mGluR5 and at rat mGluR1 was < 500 nM throughout.

On to `CCOC(=O)CC(=O)c1sc2ncccc2c1-c1ccc(Cl)cc1` [Compound 23, 3-[3-(4-Chloro-phenyl)-thieno[2,3-b]pyridin-2-yl]-3-oxo-propionic acid ethyl ester], for which the Ki on mGluR5 and on rat mGluR1 was < 500 nM in each case.

Consider `CCOC(=O)CC(=O)c1sc2ncccc2c1-c1ccc(F)cc1` [Compound 24, 3-[3-(4-fluoro-phenyl)-thieno[2,3-b]pyridin-2-yl]-3-oxo-propionic acid ethyl ester], for which the Ki on mGluR5 and on rat mGluR1 was < 500 nM throughout.

As to `CCOC(=O)CC(=O)c1sc2ncccc2c1-c1ccccc1` [Compound 25, 3-oxo-3-(3-phenyl-thieno[2,3-b]pyridin-2-yl)-propionic acid ethyl ester], the Ki on mGluR5 and on rat mGluR1 was < 500 nM each time.

With `CCOC(=O)CC(=O)c1sc2nc(C)ccc2c1-c1ccc(Cl)cc1` [Compound 26, 3-[3-(4-chloro-phenyl)-6-methyl-thieno[2,3-b]pyridin-2-yl]-3-oxo-propionic acid ethyl ester], the Ki on mGluR5 and at rat mGluR1 was < 500 nM in each case.

Take `O=C(NCc1ccc(F)cc1)c1sc2ncccc2c1-c1ccc(F)cc1` [Compound 27, 3-(4-Fluoro-phenyl)-thieno[2,3-b]pyridin-2-carboxylic acid (4-fluoro-benzyl)-amide]: the Ki at mGluR5 and on rat mGluR1 was < 500 nM throughout.

On to `CN(Cc1cccs1)C(=O)c1sc2ncccc2c1-c1ccc(Cl)cc1` [Compound 30], for which the Ki on mGluR5 and at rat mGluR1 was > 1500 nM throughout.

For the molecule `CN(Cc1ccc(F)cc1)C(=O)c1sc2ncccc2c1-c1ccc(Cl)cc1` [Compound 34], the Ki on mGluR5 was > 1500 nM; on rat mGluR1 it was 500 to 1500 nM.

As to `O=C(Nc1nccs1)c1sc2ncccc2c1-c1ccc(Cl)cc1` [Compound 35], the Ki at mGluR5 and on rat mGluR1 was > 1500 nM in each case.

Take `O=C(Nc1ccc(F)cc1)c1sc2ncccc2c1-c1ccc(F)cc1` [Compound 37]: the Ki on mGluR5 and at rat mGluR1 was > 1500 nM each time.
